From US20230398140A1, “OCULAR-TENSION-INCREASING AGENT CAPABLE OF BEING DEPRIVED OF DRUG ACTIVITY BY TEMPERATURE CONTROL” (UNIVERSITY OF YAMANASHI, priority 2020, published 2023) come the findings set out here.

For this series, the system named is White house rabbits. The conditions noted are these: rabbit, in vivo.

Protocol: White house rabbits (2 to 3.5 kg) were positioned with a positioner and ocular tension was measured by a handy tonometer (Icare TONOVET Plus, M.E, Technica) while they were kept awake, and then anesthetized with ketamine and xylazine (ketamine hydrochloride 60 mg/kg; Sankyo, Tokyo, Japan and xylazine 10 mg/kg; Bayer, Munich, Germany). Ocular tension was again measured, and eyeballs were observed by a microscope under anesthesia. Thereafter, 100 μL of 1 wt % POxMix was injected into the anterior chamber of just one of the eyes of each rabbit. Microscopic observation and tonometry were carried out immediately after injection, 30 minutes and 24 hours after anesthesia.

With poly(2-propyl-2-oxazoline) [POx], the “cloudiness of eyeball after 24 hours” value is “deposited on the iris and lens surface with the passage of time and remained as a white sediment”; the “cloudiness of eyeball immediately after administration” value is recorded as “became cloudy”.
